Assay results as given in EP2878306B1, “MODIFIED PEPTIDE, CB RECEPTOR LIGAND, KIT, IN VITRO PROCESS FOR […] RECEPTOR BONDS, USES, PHARMACEUTICAL COMPOSITION FOR […] RECEPTOR ACTIVITY” (Proteimax Biotecnologia Ltda, priority 2012, dated 2014).
No end group written: not given here.

Legend:
CB1 receptor = molecular target: T1, CB1 receptor (Homo sapiens, UniProt P21554); experiment: ELISA with striate membranes and anti-CB1 antibody, receptor activating percentage regarding the control; format: biochemical; conditions: for activity in CB1 receptors: striate membranes 5µg/pool, 1µM of each drug, 2 hours, ambient temperature, compared to control and SeqID:1
T1 construct: ligand for CB1 receptor through ELISA with striate membranes (5µg/pool) treated with 1µM of each drug; from tissue; host or cells: striatal ('striate') membranes
Experimental: (§1) The receptor activating percentage was calculated regarding the control, non-treated membrane (100%). […] Significant differences are indicated and p<0.05.

[1] = system: animals supplemented with 20% saccharose; experiment: Determination of the adiposity ratio in animals supplemented with 20% saccharose (Example 26); format: in vivo, Wistar rats; conditions: 600µg/Kg; 30 days-treatment; in comparison to further groups
Experimental: (§2) Wistar rats fed with standard regimen supplemented with 20% saccharose were used in the drinking water during 60 days before and during the 30 days-treatment with SALINE (negative control), Rimonabant (positive control), Peptide 19 (Pep 19) in the concentration of 100µg/Kg, 300µg/Kg and 600µg/Kg.

Rats = experiment: Depression model (forced swim); format: in vivo; conditions: stated as contrary to Rimonabant
Experimental: The forced swim test was performed based on the previous tests ([Harkin et al., 2004], [Petit-Demouliere et al., 2005] and [Treit and Menard, 1998]).

[2] = system: animals supplemented with 20% saccharose; experiment: Determination of the insulinemia in animals supplemented with 20% saccharose; format: in vivo, Wistar rats; conditions: 100 µg/Kg; after 30 days-treatment
Experimental: as §2, with “50µg/Kg” for “100µg/Kg, 300µg/Kg”, “Peptide 19 (Pep 19) in the concentration of 100 µg/Kg.” for “600µg/Kg.”

[3] = system: animals supplemented with 20% saccharose; experiment: Determination of the blood pressure in animals supplemented with 20% saccharose; format: in vivo, Wistar rats; conditions: 600µg/Kg; 30 days-treatment; in comparison to further groups
Experimental: as §2

Thin wistar rats [4] = experiment: Test in Gonadal adipose tissue; format: in vivo; conditions: 100 ug/Kg, 3 days orally; in comparison with Rimonabant and/or saline; scale g/100g
Experimental: The measure of the adipose tissue was performed after finishing the treatment. The results are expressed by the gonadal adipose tissue weight measured at the treatment end (scale of g/100g). Rats administered with vehicle (saline) were subject to the same protocol (control).

Thin wistar rats [5] = experiment: Test in Inguinal adipose tissue; format: in vivo; conditions: 100 ug/Kg, 3 days orally; in comparison with Rimonabant and/or saline; scale g/100g
Experimental: The measure of the adipose tissue was performed after finishing the treatment. The results are expressed by the inguinal adipose tissue weight measured at the treatment end (scale of g/100g). Rats administered with vehicle (saline) were subject to the same protocol (control).

Thin wistar rats [6] = experiment: Test in Mesenteric adipose tissue; format: in vivo; conditions: 100 ug/Kg, 3 days orally; in comparison with Rimonabant and/or saline; scale g/100g
Experimental: The measure of the adipose tissue was performed after finishing the treatment. The results are expressed by the mesenteric adipose tissue weight measured at the treatment end (scale of g/100g). Rats administered with vehicle (saline) were subject to the same protocol (control).

[7] = system: animals supplemented with 20% saccharose; experiment: Determination of Triglycerides in animals supplemented with 20% saccharose; format: in vivo, Wistar rats; conditions: 100 µg/Kg; after 30 days-treatment
Experimental: as §2, with “50µg/Kg” for “100µg/Kg, 300µg/Kg”, “Peptide 19 (Pep 19) in the concentration of 100 µg/Kg.” for “600µg/Kg.”

non-obese wistar rats = experiment: Treatment acute model, 3 days orally (Figures 4 to 9); format: in vivo
Text: Furthermore, in a treatment acute model (3 days of treatment orally in non-obese wistar rats) it was verified the brown adipose tissue activation, the retroperitoneal, inguinal and brown adipose tissues reduction, as well the adiposity ratio (Figures 4 to 9), effects not observed with Rimonabant.

Thin wistar rats [8] = experiment: Adiposity ratio determination; format: in vivo; conditions: 100 ug/Kg, 3 days orally; in comparison with Rimonabant and/or saline
Experimental: Thin wistar rats were treated with a Rimonabant dosage (100 ug/Kg) or peptide 19 (Pep 19 100 ug/Kg) during 3 days orally. The measure of the adiposity ratio was performed after finishing the treatment using the formula (%), (I=Σ fat deposits/body weight x 100). The results are expressed by the animal weight measured at the treatment end (scale of g/100g). Rats administered with vehicle (saline) were subject to the same protocol (control).

[9] = system: animals supplemented with 20% saccharose; experiment: Determination of the amount of inguinal adipose tissue in animals supplemented with 20% saccharose; format: in vivo, Wistar rats; conditions: 100µg/Kg; after the 30th day of treatment; in comparison to further groups
Experimental: as §2, with “50µg/Kg” for “100µg/Kg, 300µg/Kg”, “Peptide 19 (Pep 19) in the concentration of 100 µg/Kg.” for “600µg/Kg.”

[10] = system: animals supplemented with 20% saccharose; experiment: Glucose in animals supplemented with 20% saccharose; format: in vivo, Winstar rats; conditions: 100 µg/Kg; 15th and 30th days of treatment
Experimental: as §2, with “Winstar” for “Wistar”, “50µg/Kg” for “100µg/Kg, 300µg/Kg”, “Peptide 19 (Pep 19) in the concentration of 100 µg/Kg.” for “600µg/Kg.”

Thin wistar rats [11] = experiment: Test in Brown adipose tissue; format: in vivo; conditions: 100 ug/Kg, 3 days orally; in comparison with Rimonabant and/or saline; scale g/100g
Experimental: The measure of the adipose tissue was performed after finishing the treatment. The results are expressed by the brown adipose tissue weight measured at the treatment end (scale of g/100g). Rats administered with vehicle (saline) were subject to the same protocol (control).

[12] = system: animals supplemented with 20% saccharose; experiment: Determination of the amount of mesenteric adipose tissue in animals supplemented with 20% saccharose; format: in vivo, Wistar rats; conditions: after the 30th day of treatment, in comparison to further groups
Experimental: as §2, with “50µg/Kg” for “100µg/Kg, 300µg/Kg”, “Peptide 19 (Pep 19) in the concentration of 100 µg/Kg.” for “600µg/Kg.”

Thin wistar rats [13] = experiment: Serum leptin concentration determination; format: in vivo; conditions: 100 ug/Kg, 3 days orally; in comparison with saline
Experimental: Thin wistar rats were treated with a Rimonabant dosage (100 ug/Kg) or peptide 19 (Pep 19 100 ug/Kg) during 3 days orally. The measure of the serum leptin concentration was performed after finishing the treatment. The results are expressed ng/mL. Rats administered with vehicle (saline) were subject to the same protocol (control).

Thin wistar rats [14] = experiment: Test in Retroperitoneal adipose tissue; format: in vivo; conditions: 100 ug/Kg, 3 days orally; in comparison with Rimonabant and/or saline; scale g/100g
Experimental: The measure of the adipose tissue was performed after finishing the treatment. The results are expressed by the retroperitoneal adipose tissue weight measured for treatment purpose (scale of g/100g). Rats administered with vehicle (saline) were subject to the same protocol (control).

[15] = system: animals supplemented with 20% saccharose; experiment: Determination of the amount of gonadal adipose tissue in animals supplemented with 20% saccharose; format: in vivo, Wistar rats; conditions: 100µg/Kg; after the 30th day of treatment; in comparison to further groups
Experimental: as §2, with “50µg/Kg” for “100µg/Kg, 300µg/Kg”, “Peptide 19 (Pep 19) in the concentration of 100 µg/Kg.” for “600µg/Kg.”

[16] = system: animals supplemented with 20% saccharose; experiment: Determination of the weight in animals supplemented with 20% saccharose; format: in vivo, Rats wistar; conditions: 100 µg/Kg; 3th to 5th week of treatment
Experimental: as §2, with “Rats wistar” for “Wistar rats”, “50µg/Kg” for “100µg/Kg, 300µg/Kg”, “Peptide 19 (Pep 19) in the concentration of 100 µg/Kg.” for “600µg/Kg.”

[17] = system: animals supplemented with 20% saccharose; experiment: Determination of the cholesterol in animals supplemented with 20% saccharose; format: in vivo, Wistar rats; conditions: after 30 days-treatment
Experimental: as §2, with “50µg/Kg” for “100µg/Kg, 300µg/Kg”, “Peptide 19 (Pep 19) in the concentration of 100 µg/Kg.” for “600µg/Kg.”

[18] = system: animals supplemented with 20% saccharose; experiment: Determination of the adiposity ratio in animals supplemented with 20% saccharose (Example 25); format: in vivo, Wistar rats; conditions: 100µg/Kg; 30 days-treatment; in comparison to further groups
Experimental: as §2, with “50µg/Kg” for “100µg/Kg, 300µg/Kg”, “Peptide 19 (Pep 19) in the concentration of 100 µg/Kg.” for “600µg/Kg.”

CB2 receptor = experiment: ELISA with striate membranes for CB2 receptor, receptor activating percentage regarding the control; format: biochemical
Experimental: as §1

T1 sequence (P21554 whole entry): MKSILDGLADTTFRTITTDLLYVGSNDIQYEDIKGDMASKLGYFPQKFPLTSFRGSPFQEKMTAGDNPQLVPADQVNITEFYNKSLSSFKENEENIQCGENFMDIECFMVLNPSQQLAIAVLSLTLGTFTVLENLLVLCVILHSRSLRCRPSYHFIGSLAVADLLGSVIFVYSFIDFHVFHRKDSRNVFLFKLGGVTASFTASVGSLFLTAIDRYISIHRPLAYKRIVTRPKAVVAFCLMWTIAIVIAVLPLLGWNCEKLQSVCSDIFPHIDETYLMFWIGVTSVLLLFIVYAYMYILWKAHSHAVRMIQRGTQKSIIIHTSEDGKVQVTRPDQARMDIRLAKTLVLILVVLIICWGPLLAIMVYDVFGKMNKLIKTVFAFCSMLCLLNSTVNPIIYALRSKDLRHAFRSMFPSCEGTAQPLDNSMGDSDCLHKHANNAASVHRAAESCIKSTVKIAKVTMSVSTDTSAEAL

Substance: Cyclic peptide -Asp-Ile-Ile-Ala-Asp-Asp-Glu-Pro-Leu-Thr- [Example 6]
- Result (change in the activity of the cyclic form) (CB1 receptor; Table 1 summary, in vitro, receptor not stated): Change in the activity was not detected

Substance: DIIADDAPLT [SeqID:3]
- Result (activity regarding the CB1) (CB1 receptor; Table 1 summary): Reduces the activity regarding the CB1 (comparatively the SeqID:1).
- activity in CB1 receptors (CB1 receptor): smaller activity in CB1 receptors

Substance: DIIADDE [SeqID:4]
- Result (activity regarding the CB1) (CB1 receptor; Table 1 summary): Increases the activity regarding the CB1
- activity in CB1 receptors (CB1 receptor): improved inverse agonist activity in CB1 receptors

Substance: DIIADDEALT [SeqID:5]
- Result (high dosages) (CB1 receptor; Table 1 summary, high dosages): became agonist
- Result (low dosages) (CB1 receptor; Table 1 summary, low dosages): the inverse agonist activity was not detected
- activity in the endocannabinoid receptors, high dosages (CB1 receptor; high dosages, different dosages of each drug, 2 hours (Figure 14, CB1 receptor)): agonist activity
- activity in the endocannabinoid receptors, low dosages (CB1 receptor; low dosages, different dosages of each drug, 2 hours (Figure 14, CB1 receptor)): activity inverse agonist

Substance: DIIADDEPLT [SeqID:1]
- adiposity ratio (adipose tissue total mass corrected by the body weight) [1]: lower amounts of adipose tissue
- depression (forced swim, immobility time) (Rats): does not cause depression
- insulinemia [2]: lower average of insulinemia
- blood pressure [3]: lower blood pressure
- gonadal adipose tissue mass (Thin wistar rats [4]): no difference
- inguinal adipose tissue mass (Thin wistar rats [5]): smaller
- mesenteric adipose tissue mass (Thin wistar rats [6]): no difference
- percentages of triglycerides (% from SALINE) [7]: lower percentages of triglycerides
- adiposity ratio (non-obese wistar rats; 3 days of treatment orally): reduction
- brown adipose tissue (non-obese wistar rats; 3 days of treatment orally): reduction
- brown adipose tissue activation (non-obese wistar rats; 3 days of treatment orally): activation
- inguinal adipose tissue (non-obese wistar rats; 3 days of treatment orally): reduction
- retroperitoneal adipose tissue (non-obese wistar rats; 3 days of treatment orally): reduction
- activity when administered orally (non-obese wistar rats; oral administration): has activity even when administered orally
- adiposity ratio (Thin wistar rats [8]): smaller
- inguinal adipose tissue, corrected by the body weight [9]: biggest amounts of inguinal adipose tissue
- glycaemia [10]: lower glycaemia
- brown adipose tissue mass (Thin wistar rats [11]): smaller
- mesenteric adipose tissue, corrected by the body weight ([12]; 50 µg/Kg): lower percentages of mesenteric adipose tissue
- mesenteric adipose tissue, corrected by the body weight ([12]; 100µg/Kg): lower percentages of mesenteric adipose tissue
- serum leptin concentration (Thin wistar rats [13]): smaller
- retroperitoneal adipose tissue mass (Thin wistar rats [14]): smaller
- gonadal adipose tissue, corrected by the body weight [15]: lower percentages of gonadal adipose tissue
- activity in CB1 receptors (CB1 receptor): inverse agonist of the CB1 receptor
- weight percentages (% from the animals weight treated with SALINE) [16]: lower weight percentages
- cholesterol percentages (% from SALINE) ([17]; 50µg/Kg): lower cholesterol percentages
- cholesterol percentages (% from SALINE) ([17]; 100 µg/Kg): lower cholesterol percentages
- adiposity ratio (adipose tissue total mass corrected by the body weight) [18]: biggest amounts of adipose tissue

Substance: DILADDEPLT [SeqID:2]
- Result (activity in CB2) (CB2 receptor; Table 1 summary): raises a strong inverse agonist activity in CB2
- activity in CB2 receptors (CB2 receptor; striate membranes 5µg/pool, 1 µM of each drug, 2 hours, ambient temperature): inverse agonist of the CB2 receptor
- Result (activity regarding the CB1) (CB1 receptor; Table 1 summary): Reduces the activity regarding the CB1
